# Results reported in patent publication US20100105655A1, “NOVEL COMPOUNDS 515” (ASTRAZENECA AB, priority 2008, published 2010).
# Biological target: T1, IGFR kinase (Homo sapiens, UniProt P08069)
# T1 construct: purchased Millipore
# Assay: Enzyme assay (c), IGFR kinase, Caliper LabChip
# Format: biochemical
# Conditions: 30 nM IGFR kinase, 6 uM ATP, 3 uM peptide mix; read-out: IGFR IC50
# T1 sequence (P08069 31-1367): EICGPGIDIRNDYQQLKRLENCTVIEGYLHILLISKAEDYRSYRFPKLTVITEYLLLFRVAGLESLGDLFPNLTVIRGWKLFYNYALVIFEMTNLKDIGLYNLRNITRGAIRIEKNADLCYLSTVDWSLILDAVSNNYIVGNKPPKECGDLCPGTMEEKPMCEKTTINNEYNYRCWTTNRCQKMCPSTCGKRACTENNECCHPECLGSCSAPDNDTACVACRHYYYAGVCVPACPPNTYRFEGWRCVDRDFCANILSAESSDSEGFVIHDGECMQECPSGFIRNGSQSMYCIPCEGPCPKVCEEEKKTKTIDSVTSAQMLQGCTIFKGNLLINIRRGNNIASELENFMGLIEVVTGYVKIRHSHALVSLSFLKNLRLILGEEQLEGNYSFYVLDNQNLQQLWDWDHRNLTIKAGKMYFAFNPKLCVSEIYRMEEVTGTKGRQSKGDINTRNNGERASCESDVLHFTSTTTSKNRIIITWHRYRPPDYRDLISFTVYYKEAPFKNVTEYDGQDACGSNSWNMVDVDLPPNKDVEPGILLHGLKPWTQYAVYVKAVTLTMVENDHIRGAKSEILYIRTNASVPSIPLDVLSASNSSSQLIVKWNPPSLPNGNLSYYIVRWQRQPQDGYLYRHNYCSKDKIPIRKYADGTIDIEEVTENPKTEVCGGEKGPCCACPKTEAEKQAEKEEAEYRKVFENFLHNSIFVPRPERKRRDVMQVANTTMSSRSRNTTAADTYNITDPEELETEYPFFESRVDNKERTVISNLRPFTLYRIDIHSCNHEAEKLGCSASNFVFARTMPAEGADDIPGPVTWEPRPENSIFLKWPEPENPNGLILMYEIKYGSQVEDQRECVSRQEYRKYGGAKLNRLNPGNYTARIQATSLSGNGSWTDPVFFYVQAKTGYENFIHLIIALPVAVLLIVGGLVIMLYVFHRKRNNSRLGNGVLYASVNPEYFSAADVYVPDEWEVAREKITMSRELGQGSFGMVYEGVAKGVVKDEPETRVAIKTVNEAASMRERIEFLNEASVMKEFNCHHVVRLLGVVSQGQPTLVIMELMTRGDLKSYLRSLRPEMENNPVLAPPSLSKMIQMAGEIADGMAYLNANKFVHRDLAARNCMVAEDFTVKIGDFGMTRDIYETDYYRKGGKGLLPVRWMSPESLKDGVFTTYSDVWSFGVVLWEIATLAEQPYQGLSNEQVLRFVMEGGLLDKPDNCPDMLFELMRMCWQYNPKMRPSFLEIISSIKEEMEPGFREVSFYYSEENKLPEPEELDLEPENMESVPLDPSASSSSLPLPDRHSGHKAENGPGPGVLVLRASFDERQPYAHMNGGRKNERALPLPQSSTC
row,SMILES,IC50 [nM]
1,"COc1cc(N2CCN(C(C)CO)CC2)ccc1Nc1ncc(C)c(-c2cnc3ccccn23)n1 (stereo not shown) [Example 274, 2-[4-[4-[(4-imidazo[1,2-a]pyridin-3-yl-5-methyl-pyrimidin-2-yl)amino]-3-methoxy-phenyl]piperazin-1-yl]propan-1-ol]",14
2,"COc1cc(N2CC3CNCC(C2)O3)ccc1Nc1ncc(Cl)c(-c2cnn3ccccc23)n1 [Example 149, 5-chloro-N-[2-methoxy-4-(9-oxa-3,7-diazabicyclo[3.3.1]nonan-7-yl)phenyl]-4-pyrazolo[1,5-a]pyridin-3-yl-pyrimidin-2-amine]",7
3,"COc1cc(OC2CN(C(=O)[C@H](C)OC)C2)ccc1Nc1ncc(Cl)c(-c2cnc3ccccn23)n1 [Example 27.2, (2S)-1-[3-[4-[(5-chloro-4-imidazo[1,2-a]pyridin-3-yl-pyrimidin-2-yl)amino]-3-methoxy-phenoxy]azetidin-1-yl]-2-methoxy-propan-1-one]",36
4,"COc1cc(N2CCN(S(=O)(=O)N(C)C)CC2)ccc1Nc1ncc(F)c(-c2cnc3ccccn23)n1 [Example 74, 4-[4-[(5-fluoro-4-imidazo[1,2-a]pyridin-3-yl-pyrimidin-2-yl)amino]-3-methoxy-phenyl]-N,N-dimethyl-piperazine-1-sulfonamide]",42
5,"COc1cc(N2CCN(C(=O)C3CCCN3)CC2)ccc1Nc1ncc(Cl)c(-c2cnc3ccccn23)n1 (stereo not shown) [Example 24.3, [4-[4-[(5-chloro-4-imidazo[1,2-a]pyridin-3-ylpyrimidin-2-yl)amino]-3-methoxyphenyl]piperazin-1-yl]-pyrrolidin-2-yl methanone]",5
6,"COc1cc(N2CCN(C)CC2)ccc1Nc1ncc(Br)c(-c2cnc3ccccn23)n1 [Example 121, 5-bromo-4-imidazo[1,2-a]pyridin-3-yl-N-[2-methoxy-4-(4-methylpiperazin-1-yl)phenyl]pyrimidin-2-amine]",15
7,"COc1cc(N2CC3CN(C(=O)[C@@H](C)O)CC(C2)O3)ccc1Nc1ncc(Cl)c(-c2cnc3c(F)cccn23)n1 [Example 214, (2R)-1-[3-[4-[[5-chloro-4-(8-fluoroimidazo[1,2-a]pyridin-3-yl)pyrimidin-2-yl]amino]-3-methoxy-phenyl]-9-oxa-3,7-diazabicyclo[3.3.1]nonan-7-yl]-2-hydroxy-propan-1-one]",18
8,"COc1cc(N2CCN(C(=O)[C@@H](C)N)CC2)ccc1Nc1ncc(Cl)c(-c2cnc3cc(C)ccn23)n1 [Example 254, (2R)-2-amino-1-[4-[4-[[5-chloro-4-(7-methylimidazo[1,2-a]pyridin-3-yl)pyrimidin-2-yl]amino]-3-methoxy-phenyl]piperazin-1-yl]propan-1-one]",5
9,"COc1cc(N2CCN(CCO)CC2)ccc1Nc1ncc(C)c(-c2cnn3ccccc23)n1 [Example 161, 2-[4-[3-methoxy-4-[(5-methyl-4-pyrazolo[1,5-a]pyridin-3-yl-pyrimidin-2-yl)amino]phenyl]piperazin-1-yl]ethanol]",11
10,"COc1cc(N2CC3CN(CCO)CC(C2)O3)ccc1Nc1ncc(C)c(-c2cnn3ccccc23)n1 [Example 166, 2-[7-[3-methoxy-4-[(5-methyl-4-pyrazolo[1,5-a]pyridin-3-yl-pyrimidin-2-yl)amino]phenyl]-9-oxa-3,7-diazabicyclo[3.3.1]nonan-3-yl]ethanol]",17
11,"CCc1ccn2c(-c3nc(Nc4ccc(N5CCN(C(C)=O)CC5)cc4OC)ncc3Cl)cnc2c1 [Example 126.8, 1-[4-[4-[[5-chloro-4-(7-ethylimidazo[1,2-a]pyridin-3-yl)pyrimidin-2-yl]amino]-3-methoxyphenyl]piperazin-1-yl]ethanone]",21
12,"COc1cc(O[C@H]2CCN(S(C)(=O)=O)C2)ccc1Nc1ncc(Cl)c(-c2cnc3ccccn23)n1 [Example 14, 5-chloro-4-imidazo[1,2-a]pyridin-3-yl-N-[2-methoxy-4-[(3S)-1-methylsulfonylpyrrolidin-3-yl]oxy-phenyl]pyrimidin-2-amine]",19
13,"COc1cc(N2CCN(CC(C)(C)O)CC2)ccc1Nc1ncc(Cl)c(-c2cnc3ccccn23)n1 [Example 52, 1-[4-[4-[(5-chloro-4-imidazo[1,2-a]pyridin-3-yl-pyrimidin-2-yl)amino]-3-methoxy-phenyl]piperazin-1-yl]-2-methyl-propan-2-ol]",10
14,"CC(=O)N1CCN(c2ccc(Nc3ncc(Cl)c(-c4cnc5ccccn45)n3)c(OC(C)C)c2)CC1 [Example 3.34, 1-[4-[4-[(5-chloro-4-imidazo[1,2-a]pyridin-3-yl-pyrimidin-2-yl)amino]-3-isopropoxy-phenyl]piperazin-1-yl]ethanone]",22
15,"COc1cc(OC2CN(C(=O)C3(O)CC3)C2)ccc1Nc1ncc(Cl)c(-c2cnc3ccccn23)n1 [Example 27.5, [3-[4-[(5-chloro-4-imidazo[1,2-a]pyridin-3-yl-pyrimidin-2-yl)amino]-3-methoxy-phenoxy]azetidin-1-yl]-(1-hydroxycyclopropyl)methanone]",23
16,"CNCC(=O)N1CCC(c2ccc(Nc3ncc(F)c(-c4cnn5ccccc45)n3)c(OC)c2)CC1 [Example 238, 1-[4-[4-[(5-fluoro-4-pyrazolo[1,5-a]pyridin-3-yl-pyrimidin-2-yl)amino]-3-methoxy-phenyl]-1-piperidyl]-2-(methylamino)ethanone]",8
17,"COc1cc(OC2CN(C(=O)[C@@H](C)O)C2)ccc1Nc1ncc(Cl)c(-c2cnc3ccccn23)n1 [Example 27.6, (2R)-1-[3-[4-[(5-chloro-4-imidazo[1,2-a]pyridin-3-yl-pyrimidin-2-yl)amino]-3-methoxy-phenoxy]azetidin-1-yl]-2-hydroxy-propan-1-one]",14
18,"COc1cc(N2CCN(C(C)(C)CO)CC2)ccc1Nc1ncc(F)c(-c2cnc3ccc(F)cn23)n1 [Example 261, 2-[4-[4-[[5-fluoro-4-(6-fluoroimidazo[1,2-a]pyridin-3-yl)pyrimidin-2-yl]amino]-3-methoxy-phenyl]piperazin-1-yl]-2-methyl-propan-1-ol]",23
19,"COc1ccc(N2CCCC2)cc1Nc1ncc(Cl)c(-c2cnc3ccccn23)n1 [Example 3.8, 5-chloro-4-imidazo[1,2-a]pyridin-3-yl-N-(2-methoxy-5-pyrrolidin-1-yl-phenyl)pyrimidin-2-amine]",309
20,"COc1cc(N2CCN(C(C)(C)CO)CC2)ccc1Nc1ncc(Cl)c(-c2cnc3ccc(F)cn23)n1 [Example 259, 2-[4-[4-[[5-chloro-4-(6-fluoroimidazo[1,2-a]pyridin-3-yl)pyrimidin-2-yl]amino]-3-methoxy-phenyl]piperazin-1-yl]-2-methyl-propan-1-ol]",4
21,"COc1cc(CN2CC(O)C2)ccc1Nc1ncc(Cl)c(-c2cnc3ccccn23)n1 [Example 21.16, 1-[[4-[(5-chloro-4-imidazo[1,2-a]pyridin-3-yl-pyrimidin-2-yl)amino]-3-methoxy-phenyl]methyl]azetidin-3-ol]",22
22,"COc1cc(C2CCN(C(C)=O)CC2)ccc1Nc1ncc(C(F)(F)F)c(-c2cnc3ccccn23)n1 [Example 108, 1-[4-[4-[[4-imidazo[1,2-a]pyridin-3-yl-5-(trifluoromethyl)pyrimidin-2-yl]amino]-3-methoxy-phenyl]-1-piperidyl]ethanone]",14
